Data on one compound can be found in patent US12522587B2, “Cancer treatments targeting cancer stem cells” (Remedy Plan, Inc., priority 2018, dated 2026).

One data set concerns oct4. Kind of data set: RT-qPCR of oct4 RNA in AGS cells. It is filed as cell-based, human. The following applies: 10 μM, 4 days, FIG. 2. How it is done:
(§1) Approximately 2.5×10^5 AGS cells were treated for 4 days with DMSO alone (no drug treatment) or 10 μM compound I-1 in DMSO. Cells were lysed and RNA was extracted using Zymo's Quick RNA-Microprep following manufacturer instructions. 100 ng of RNA were reverse transcribed using MuLV reverse transcriptase (New England Biolabs, USA). qPCR was performed using 2 ul of cDNA and Luna Universal qPCR Master Mix from NEB in a Stratagene Mx3005P.
AGS gastric cancer cells were treated with either DMSO alone (no drug treatment) or compound I-1 at […] for 4 days. RNA was isolated and oct4 RNA levels were measured by RT-qPCR.
Background: Quantitative PCR measures a nucleic acid by following its amplification.

The next data set deals with nanog. Kind of data set: RT-qPCR of nanog RNA in AGS cells. It is filed as cell-based, human. As to conditions: 10 μM, 4 days, FIG. 3. How it is done:
as §1
AGS gastric cancer cells were treated with either DMSO alone (no drug treatment) or 10 µM of compound I-1 for 4 days. RNA was isolated and nanog RNA levels were measured by RT-qPCR.

Data set [1] relates to Primary CD-1 mouse hepatocytes. In words: Hepatocyte toxicity assay (CellTiter Glo). It is filed as cell-based. As to conditions: 10 μM daily for 4 days, FIG. 4. On the procedure: Fresh Primary CD-1 mouse hepatocytes were obtained from XenoTech in 96-well plates the day after perfusion. After 24 hrs of recovery at 37° C. using OptiCulture Hepatocyte Media, medium was replaced containing either DMSO alone (no drug treatment) or 10 μM of compound I-1 daily for 4 days. Cell viability was measured using CellTiter Glo 2.0 Kit from PROMEGA, following manufacturer instructions. Luminescence was measured using a SynergyHTX plate reader with a 1 sec integration.
Normal, healthy mouse hepatocytes were treated with DMSO alone (no drug treatment) or 10 µM of compound I-1 for 4 days. Cell health was measured using CELLTITER GLO reagent, which provided a luminescence readout as a measurement of total ATP concentration.
A general note: Cellular ATP, detected with luciferase, serves as a proxy for viable cell number.

The next data set has as its system AGS cells. Kind of data set: Kinetic cell viability with AGS cells (RealTime Glo MT). It is filed as cell-based, human. How it is done:
Approximately 50,000 AGS cells were seeded per well of a 96-well plate in media containing NanoLuc Luciferase and MT Cell Viability Substrate provided on the RealTime Glo MT Cell Viability Assay Kit from PROMEGA. Four hours after plating, cells were treated with DMSO alone (no drug treatment) or decreasing concentrations of a compound of the disclosure to achieve final concentrations of 20, 10, 5, and 2.5 μM. Luminescence Units (RLU) were measured every 16-20 hours using a SynergyHTX plate reader with a 30 msec integration (see FIG. 1).
Approximately 50,000 AGS cells were seeded per well of a 96-well plate in media containing NanoLuc Luciferase and MT Cell Viability Substrate provided on the RealTime Glo MT Cell Viability Assay Kit from PROMEGA. Four hours after plating, cells were treated with DMSO alone (no drug treatment) or decreasing concentrations of compound I-1 to achieve final concentrations of 20, 10, 5, and 2.5 μM. Luminescence Units (RLU) were measured every 16-20 hrs using a SynergyHTX plate reader with a 30 msec integration.
AGS gastric cancer cells were treated with either DMSO alone (no drug treatment) or various concentrations of compound I-1 (including 2.5 µM, 5 µM, 10 µM, and 20 µM) for 4 days. Cell health and replication were measured using REALTIME-GLO MT Cell Viability Assay, which provided a luminescence readout as a measurement of cell number and health.

Regarding `CCC(=O)N1CCc2cc(-c3ccc(C(=O)NCc4cccnc4)cc3)ccc21` [Compound I-1], in the data set on oct4, the “oct4 expression in gastric cancer cells” value is “decreased”. Moreover, in the data set with nanog, the “nanog expression in gastric cancer cells” value is given as “decreased”. Also, in data set [1], the “toxicity to healthy hepatocytes” value is given as “no toxicity”. The “growth of gastric cancer cells” value in the data set with AGS cells (AGS cells, 2.5-20 μM, 4 days, FIG. 5) is “inhibited growth”. The “populations of embryonic-like gastric cell populations in gastric cancer” value in the data set on AGS cells (AGS cells, 20, 10, 5 and 2.5 μM, FIG. 1) is recorded as “depleted”.
